ChEMBL document CHEMBL1151669, “Caparratriene, an active sesquiterpene hydrocarbon from Ocotea caparrapi” (J Nat Prod, 1996)
Activity calls are given as the source filed them. The rule behind the calls is not given here.

How the values were obtained:
[1] = test system: CCRF-CEM; test: Growth inhibition of human CEM cells incubated in presence of light after 24 hrs by trypan blue staining; format: functional, cell-based
[2] = test system: CCRF-CEM; test: Growth inhibition of human CEM cells after 24 hrs by trypan blue staining; format: functional, cell-based

- IC50 [2]: 3 µM
SMILES: C/C=C(C)/C=C/C[C@H](C)CCC=C(C)C [CAPARRATRIENE]
- Activity [1]: Active
